Where two headings read alike, the source gives them in different places.
Key:
Assay in all cases: MIC, broth microdilution (CLSI), substance alone or ATB combined with compound at 4 or 8 μg/mL
[1] = test system: ECL P99; format: cell-based, E. cloacae; settings: ECL P99; for MIC: Enterobacter cloacae
In short: (§1)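 Antibiotic MICs were determined in presence of fixed compound at 4 or 8 μg/mL, and compound MICs alone, by visual growth inhibition. Inoculum 5·10^5 CFU/mL in ca-MHB, incubated 35 °C for 16-20 h per CLSI-M7-A7. Glucose-6-phosphate (25 μg/ml) added when fosfomycin was tested.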

[2] = test system: PAE 105250; format: cell-based, P. aeruginosa; settings: PAE 105250
In short: as §1

[3] = test system: PAE UFR48; format: cell-based, P. aeruginosa; settings: PAE UFR48
In short: as §1

[4] = test system: PAE UFR90; format: cell-based, P. aeruginosa; settings: PAE UFR90
In short: as §1

[5] = test system: SAU 29213; format: cell-based, S. aureus; settings: SAU 29213
In short: as §1

[6] = test system: SPN 49619; format: cell-based, S. pneumoniae; settings: SPN 49619
In short: as §1

[7] = Pseudomonas aeruginosa, antibiotic alone, read-out: MIC ATB alone

CC1(C)S[C@@H]2[C@H](NC(=O)[C@H](N)c3ccc(O)cc3)C(=O)N2[C@H]1C(=O)O [AMX, Amoxicillin, reference compound]
MIC ATB combined with Example 1 @8 μg/ml ([1]; with Example 1 at 8 μg/ml): <0.031 mg/L | MIC ATB combined with Example 7 @8 μgml ([1]; with Example 7 at 8 μg/ml): >32 mg/L | MIC ATB combined with Example 9 @4 μg/ml ([1]; with Example 9 @4 μg/ml): <0.031 mg/L | MIC ATB combined with Example 9 @4 μg/ml ([1]; with Example 9 at 4 μg/ml): <0.031 mg/L | MIC ATB combined with Example 11 @8 μg/ml ([1]; with Example 11 at 8 μg/ml): <0.031 mg/L | MIC ATB combined with Example 12 @8 μg/ml ([1]; with Example 12 at 8 μg/ml): <0.031 mg/L | MIC ATB combined with Example 13 @8 μg/ml ([1]; with Example 13 at 8 μg/ml): >32 mg/L | MIC ATB combined with Example 14 @8 μg/ml ([1]; with Example 14 at 8 μg/ml): <0.031 mg/L | MIC ATB combined with Example 15 @4 μgml ([1]; with Example 15 at 4 μg/ml): <0.031 mg/L | MIC ATB combined with Example 16 @4 μg/ml ([1]; with Example 16 at 4 μg/ml): <0.031 mg/L | MIC ([1]; antibiotic alone, read-out: MIC ATB alone): > 1020 mg/L | MIC ([1]; substance alone, read-out: MIC): > 1020 mg/L | MIC ATB combined with Example 7 @8 μgml ([2]; with Example 7 at 8 μg/ml): >32 mg/L | MIC ATB combined with Example 9 @4 μg/ml ([2]; with Example 9 @4 μg/ml): >32 mg/L | MIC ATB combined with Example 9 @4 μg/ml ([2]; with Example 9 at 4 μg/ml): >32 mg/L | MIC ATB combined with Example 11 @8 μg/ml ([2]; with Example 11 at 8 μg/ml): >32 mg/L | MIC ATB combined with Example 12 @8 μg/ml ([2]; with Example 12 at 8 μg/ml): >32 mg/L | MIC ATB combined with Example 13 @8 μg/ml ([2]; with Example 13 at 8 μg/ml): >32 mg/L | MIC ATB combined with Example 14 @8 μg/ml ([2]; with Example 14 at 8 μg/ml): >32 mg/L | MIC ATB combined with Example 15 @4 μgml ([2]; with Example 15 at 4 μg/ml): >32 mg/L | MIC ATB combined with Example 16 @4 μg/ml ([2]; with Example 16 at 4 μg/ml): >32 mg/L | MIC [2, 7]: > 1020 mg/L | MIC ATB combined with Example 1 @8 μg/ml ([3]; with Example 1 @8 μg/ml): <0.031 mg/L | MIC ATB combined with Example 1 @8 μg/ml ([3]; with Example 1 at 8 μg/ml): <0.031 mg/L | MIC ATB combined with Example 7 @8 μgml ([3]; with Example 7 at 8 μg/ml): >32 mg/L | MIC ATB combined with Example 9 @4 μg/ml ([3]; with Example 9 @4 μg/ml): >32 mg/L | MIC ATB combined with Example 9 @4 μg/ml ([3]; with Example 9 at 4 μg/ml): >32 mg/L | MIC ATB combined with Example 11 @8 μg/ml ([3]; with Example 11 at 8 μg/ml): >32 mg/L | MIC ATB combined with Example 12 @8 μg/ml ([3]; with Example 12 at 8 μg/ml): >32 mg/L | MIC ATB combined with Example 13 @8 μg/ml ([3]; with Example 13 at 8 μg/ml): >32 mg/L | MIC ATB combined with Example 14 @8 μg/ml ([3]; with Example 14 at 8 μg/ml): >32 mg/L | MIC ATB combined with Example 15 @4 μgml ([3]; with Example 15 at 4 μg/ml): >32 mg/L | MIC ATB combined with Example 16 @4 μg/ml ([3]; with Example 16 at 4 μg/ml): >32 mg/L | MIC [3, 7]: > 1020 mg/L | MIC ATB combined with Example 1 @8 μg/ml ([4]; with Example 1 @8 μg/ml): <0.031 mg/L | MIC ATB combined with Example 1 @8 μg/ml ([4]; with Example 1 at 8 μg/ml): <0.031 mg/L | MIC ATB combined with Example 7 @8 μgml ([4]; with Example 7 at 8 μg/ml): >32 mg/L | MIC ATB combined with Example 9 @4 μg/ml ([4]; with Example 9 @4 μg/ml): >32 mg/L | MIC ATB combined with Example 9 @4 μg/ml ([4]; with Example 9 at 4 μg/ml): >32 mg/L | MIC ATB combined with Example 11 @8 μg/ml ([4]; with Example 11 at 8 μg/ml): >32 mg/L | MIC ATB combined with Example 12 @8 μg/ml ([4]; with Example 12 at 8 μg/ml): >32 mg/L | MIC ATB combined with Example 13 @8 μg/ml ([4]; with Example 13 at 8 μg/ml): >32 mg/L | MIC ATB combined with Example 14 @8 μg/ml ([4]; with Example 14 at 8 μg/ml): >32 mg/L | MIC ATB combined with Example 15 @4 μgml ([4]; with Example 15 at 4 μg/ml): >32 mg/L | MIC ATB combined with Example 16 @4 μg/ml ([4]; with Example 16 at 4 μg/ml): >32 mg/L | MIC [4, 7]: > 32 mg/L | MIC ATB combined with Example 1 @8 μg/ml ([5]; with Example 1 @8 μg/ml): 0.25 mg/L | MIC ATB combined with Example 1 @8 μg/ml ([5]; with Example 1 at 8 μg/ml): 0.25 mg/L | MIC ATB combined with Example 9 @4 μg/ml ([5]; with Example 9 @4 μg/ml): <0.031 mg/L | MIC ATB combined with Example 9 @4 μg/ml ([5]; with Example 9 at 4 μg/ml): <0.031 mg/L | MIC ATB combined with Example 11 @8 μg/ml ([5]; with Example 11 at 8 μg/ml): <0.031 mg/L | MIC ATB combined with Example 12 @8 μg/ml ([5]; with Example 12 at 8 μg/ml): <0.031 mg/L | MIC ATB combined with Example 14 @8 μg/ml ([5]; with Example 14 at 8 μg/ml): <0.031 mg/L | MIC ATB combined with Example 15 @4 μgml ([5]; with Example 15 at 4 μg/ml): <0.031 mg/L | MIC ATB combined with Example 16 @4 μg/ml ([5]; with Example 16 at 4 μg/ml): <0.031 mg/L | MIC ([5]; Staphylococcus aureus, antibiotic alone, read-out: MIC ATB alone): 2 mg/L | MIC ATB combined with Example 7 @8 μgml ([6]; with Example 7 at 8 μg/ml): <=0.031 μg/mL | MIC ATB combined with Example 9 @4 μg/ml ([6]; with Example 9 @4 μg/ml): <0.031 mg/L | MIC ATB combined with Example 9 @4 μg/ml ([6]; with Example 9 at 4 μg/ml): <0.031 mg/L | MIC ATB combined with Example 11 @8 μg/ml ([6]; with Example 11 at 8 μg/ml): <0.031 mg/L | MIC ATB combined with Example 12 @8 μg/ml ([6]; with Example 12 at 8 μg/ml): <0.031 mg/L | MIC ATB combined with Example 13 @8 μg/ml ([6]; with Example 13 at 8 μg/ml): <=0.031 μg/mL | MIC ATB combined with Example 14 @8 μg/ml ([6]; with Example 14 at 8 μg/ml): <0.031 mg/L | MIC ATB combined with Example 15 @4 μgml ([6]; with Example 15 at 4 μg/ml): <0.031 mg/L | MIC ATB combined with Example 16 @4 μg/ml ([6]; with Example 16 at 4 μg/ml): <0.031 mg/L

Source: US20200024278A1, “COMPOSITION COMPRISING ANTIBIOTIC COMPOUND AND AN HETEROCYCLIC COMPOUND AND THEIR USE IN PREVENTING OR TREATING BACTERIAL INFECTIONS” (MUTABILIS, priority 2016, published 2020)
